The target in one test is GPIIb/IIIa (Homo sapiens, UniProt P05106+P08514). The experiment in a line: In Vitro Solid Phase Purified Glycoprotein IIb/IIIa Binding Assay (fibrinogen binding). As to the method:
In Vitro Solid Phase Purified Glycoprotein IIB/IIIA Binding Assay
The plate is covered and incubated overnight at 4° C. The GPIIb/IIIa solution is discarded and 150 μl of 5% BSA is added and incubated at RT for 1-3 h. The plate is washed extensively with modified Tyrodes buffer. Biotinylated fibrinogen (25 μl/well) at 2×final concentration is added to the wells that contain the test compounds (25 μl/well). The plate is covered and incubated at RT for 2-4 h. Twenty minutes prior to incubation completion, one drop of Reagent A (Vecta Stain ABC Horse Radish Peroxidase kit, Vector Laboratories, Inc.) and one drop Reagent B are added with mixing to 5 mL modified Tyrodes buffer mix and let stand. The ligand solution is discarded and the plate washed (5×200 μl/well) with modified Tyrodes buffer. Vecta Stain HRP-Biotin-Avidin reagent (50 μl/well, as prepared above) is added and incubated at RT for 15 min. The Vecta Stain solution is discarded and the wells washed ([…]) with modified Tyrodes buffer. Developing buffer (10 mL of 50 mM citrate/phosphate buffer @ pH 5.3, 6 mg Q-phenylenediamine, 6 μl 30% H2 O2; 50 μl/well) is added and incubated at RT for 3-5 min, and then 2N H2 SO4 (50 μl/well) is added. The absorbance is read at 490 nm.

Test [1] concerns gel-filtered platelets (thrombin-induced aggregation). The experiment in a line: In Vitro Inhibition of Thrombin-Induced Gel-Filtered Platelet Aggregation Assay. The conditions noted are these: Homo sapiens; for inhibition at 50 µM: read-out: Platelet Aggregation % Inh. (50 μM); for IC50: read-out: Platelet Aggregation IC50. It is filed as cell-based. The protocol: In Vitro Inhibition of Thrombin-Induced Gel-Filtered Platelet Aggregation Assay
The percentage of platelet aggregation is calculated as an increase in light transmission of compound-treated platelet concentrate vs. control-treated platelet concentrate. Human blood is obtained from drug free, normal donors into tubes containing 0.13M sodium citrate. Platelet rich plasma (PRP) is collected by centrifugation of whole blood at 200×g for 10 min at 25° C. The PRP (5 mL) is gel filtered through Sepharose 2B (bed volume 50 mL), and the platelet count is adjusted to 2×10^7 platelets per sample. The following constituents are added to a siliconized cuvette: concentrated platelet filtrate and Tyrode's buffer (0.14M NaCl, 0.0027M KCl, 0.012M NaHCO3,0.76 mM Na2 HPO4, 0.0055M glucose, 2 mg/mL BSA and 5.0 mM HEPES @ pH 7.4) in an amount equal to 350 μl, 50 μl of 20 mM calcium and 50 μl of the test compound. Aggregation is monitored in a BIODATA aggregometer for the 3 min following the addition of agonist (thrombin 50 μl of 1 unit/mL).

The subject of test [2] is collagen or ADP-induced ex vivo platelet aggregation. The experiment in a line: Ex Vivo Dog Study: ex vivo platelet aggregation. It is filed as in vivo. The protocol: Adult mongrel dogs (8-13 kg) were anesthetized with sodium pentobarbital ([…], i.v.) and artificially respired. Arterial blood pressure and heart rate were measured using a Millar catheter-tip pressure transducer inserted in a femoral artery Another Millar transducer was placed in the left ventricle (LV) via a carotid artery to measure LV end diastolic pressure and indices of myocardial contractility. A lead electrocardiogram was recorded from limb electrodes. Catheters were placed in a femoral artery and vein to sample blood and infuse drugs, respectively. Responses were continuously monitored using a Modular Instruments data aquisition system.
Separate blood samples (1.5 ml) were withdrawn in EDTA to determine hematocrit and cell counts (platelets, RBC's and white cells). Template bleeding times were obtained from the buccal surface using a symplate incision devise and Whatman filter paper.
Aggregation of PRP was performed using a BioData aggregometer. Aggregation of whole blood used a Chronolog impedance aggregometer. PT and APTT were determined on either a BioData or ACL 3000+ coagulation analyser. Cells were counted with a Sysmex K-1000.
Compounds were solubilized in a small volume of dimethylformamide (DMF) and diluted with saline to a final concentration of 10% DMF. Compounds were administered by the intravenous route with a Harvard infusion pump. […] Data were obtained after each dose and in 30 min intervals following the end of drug administration. Oral doses were administered as aqueous solutions via syringe.

The subject of another test is thrombus formation. The experiment in a line: canine arteriovenous shunt model of thrombosis. Format: in vivo. As to conditions: iv infusion.
[3] abbreviates: isolated GPIIb/IIIa, biotinylated fibrinogen, read-out: Fibrinogen Binding IC50.
[4] abbreviates: 50 μM, thrombin-induced aggregation of gel-filtered platelets.
Setting [5] is: thrombin-induced aggregation of gel-filtered platelets.

SMILES strings stand for the structures. Counter-ions that a name gives are not always drawn. Like-named read-outs stand apart in the source and are kept apart here.

GPIIb/IIIa, sequence (P08514 32-887 limits assumed): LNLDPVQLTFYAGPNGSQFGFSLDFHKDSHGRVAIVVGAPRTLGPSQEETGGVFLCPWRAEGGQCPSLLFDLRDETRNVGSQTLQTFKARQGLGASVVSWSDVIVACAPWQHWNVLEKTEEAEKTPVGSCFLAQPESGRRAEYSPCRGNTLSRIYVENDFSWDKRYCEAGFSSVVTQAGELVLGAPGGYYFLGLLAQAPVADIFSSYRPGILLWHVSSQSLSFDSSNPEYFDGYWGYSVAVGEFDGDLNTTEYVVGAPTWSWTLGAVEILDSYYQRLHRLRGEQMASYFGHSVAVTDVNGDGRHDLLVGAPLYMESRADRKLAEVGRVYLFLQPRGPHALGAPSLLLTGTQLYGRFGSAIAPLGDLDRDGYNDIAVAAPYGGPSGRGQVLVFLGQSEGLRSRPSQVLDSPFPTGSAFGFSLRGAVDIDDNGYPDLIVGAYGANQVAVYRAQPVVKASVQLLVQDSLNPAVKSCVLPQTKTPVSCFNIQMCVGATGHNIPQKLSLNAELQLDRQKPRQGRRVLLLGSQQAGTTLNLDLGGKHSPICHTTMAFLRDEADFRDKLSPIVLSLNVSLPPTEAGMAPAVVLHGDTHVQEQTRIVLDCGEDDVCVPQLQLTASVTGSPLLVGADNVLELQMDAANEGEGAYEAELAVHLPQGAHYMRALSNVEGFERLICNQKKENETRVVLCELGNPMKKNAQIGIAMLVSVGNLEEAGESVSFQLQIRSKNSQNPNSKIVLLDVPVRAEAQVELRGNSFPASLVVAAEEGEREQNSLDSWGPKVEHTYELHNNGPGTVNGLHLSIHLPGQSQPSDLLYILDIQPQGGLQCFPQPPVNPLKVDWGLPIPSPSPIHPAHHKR
GPIIb/IIIa, sequence (P08514 891-1039 limits assumed): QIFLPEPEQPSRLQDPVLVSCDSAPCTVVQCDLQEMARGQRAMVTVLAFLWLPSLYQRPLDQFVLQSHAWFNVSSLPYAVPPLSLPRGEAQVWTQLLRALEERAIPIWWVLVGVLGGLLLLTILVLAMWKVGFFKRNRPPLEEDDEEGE
GPIIb/IIIa, sequence (P05106 27-788): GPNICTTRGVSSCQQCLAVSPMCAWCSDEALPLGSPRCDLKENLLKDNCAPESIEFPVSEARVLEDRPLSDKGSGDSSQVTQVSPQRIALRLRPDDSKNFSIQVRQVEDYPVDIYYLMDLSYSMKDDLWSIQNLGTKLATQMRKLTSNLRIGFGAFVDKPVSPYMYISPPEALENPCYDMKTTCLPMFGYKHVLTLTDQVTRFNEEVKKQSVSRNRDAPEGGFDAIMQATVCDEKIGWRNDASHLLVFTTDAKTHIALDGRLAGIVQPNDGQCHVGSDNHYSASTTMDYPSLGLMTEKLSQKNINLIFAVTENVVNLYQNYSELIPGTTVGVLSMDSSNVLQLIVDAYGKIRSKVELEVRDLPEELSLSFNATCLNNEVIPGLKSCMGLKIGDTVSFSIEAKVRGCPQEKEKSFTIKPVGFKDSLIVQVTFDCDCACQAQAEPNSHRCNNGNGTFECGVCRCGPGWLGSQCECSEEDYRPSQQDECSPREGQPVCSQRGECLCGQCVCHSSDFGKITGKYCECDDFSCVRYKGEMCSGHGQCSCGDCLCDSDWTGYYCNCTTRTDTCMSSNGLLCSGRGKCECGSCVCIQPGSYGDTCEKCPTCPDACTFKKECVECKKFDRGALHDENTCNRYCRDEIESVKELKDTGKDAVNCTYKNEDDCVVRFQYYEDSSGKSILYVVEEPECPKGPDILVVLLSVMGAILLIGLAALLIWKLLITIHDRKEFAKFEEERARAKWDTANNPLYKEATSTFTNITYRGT

`O=C(O)C(O)CNC(=O)[C@@H]1CCCN(C(=O)CCC2CCNCC2)C1` (single isomer, unassigned) [Compound 11, N-3-(4-Piperidinepropionyl)-R-(-)-nipecotyl-(3-amino-2-hydroxy) propionic acid.TFA]: the IC50 at GPIIb/IIIa (setting [3]) stood at 4 nM.
On to `NCCCCCC(=O)N1CCCC(C(=O)NC(CC(=O)O)c2cccnc2)C1` (stereo not drawn) [Compound 10, N-(6-Aminocaproyl)-nipecotyl-3-amino-3-(3-pyridyl)propionic acid.3TFA], for which the 50% inhibitory concentration (IC50) on GPIIb/IIIa turned out to be 19 nM; in test [1] (setting [5]), 1600 nM. In addition, the inhibition at 50 µM in test [1] (setting [4]) was determined as 85%.
Consider `O=C(O)C[C@H](NC(=O)[C@@H]1CCCN(C(=O)CCC2CCNCC2)C1)c1ccc2c(c1)OCO2` [Compound 16, N-3-(4-Piperidinepropionyl)-R-(-)-nipecotyl-[(S)-3-amino-3-(3,4-methylenedioxyphenyl)]propionic acid.HCl], for which the IC50 at GPIIb/IIIa (setting [3]) is 0.5 nM; in test [1], 28 nM. Further, the inhibition at 50 µM on GPIIb/IIIa (read-out: Fibrinogen Binding % Inh. (50 μM)) stood at 100%; in test [1], 94%. The “Duration of >50% inhibition of collagen or ADP induced ex vivo platelet aggregation” value in test [2] (intravenous, 0.1 mpk) is listed as 60 min; in test [2] (oral, 1 mpk) it was 60 min; in test [2] (oral, 3 mpk) it was greater than 180 min. Moreover, the entries for the “thrombus weight vs. vehicle control” value in the test with thrombus formation (10 μg/kg/min cumulative dose), in the test with thrombus formation (30 μg/kg/min cumulative dose) and in the test with thrombus formation (100 μg/kg/min cumulative dose) were 75%, 37% and 12%, respectively. Besides, in the test on thrombus formation, the “efficacy in canine arteriovenous shunt model of thrombosis” value is “have shown efficacy in a canine arteriovenous shunt model of thrombosis in a dose-dependent fashion”.
In the case of `O=C(O)C[C@H](NC(=O)[C@@H]1CCCN(C(=O)CCC2CCNCC2)C1)c1cnc2ccccc2c1` [Compound 18, N-3-(4-Piperidinepropionyl)-R-(-)-nipecotyl-[(S)-3-amino-3-(3-quinolinyl)]propionic acid.2HCl], on GPIIb/IIIa (setting [3]), the IC50 was determined as 0.2 nM. The inhibition at 50 µM in test [1] (setting [4]) is 100%. Moreover, the “efficacy in canine arteriovenous shunt model of thrombosis” value in the test on thrombus formation is “have shown efficacy in a canine arteriovenous shunt model of thrombosis in a dose-dependent fashion”.
Consider `O=C(O)C[C@H](NC(=O)C1CCCN(CCCC2CCNCC2)C1)c1ccc2c(c1)OCO2` (stereo partly drawn) [Compound 20, N-3-(4-Piperidinepropyl)-nipecotyl-[(S)-3-amino-3-(3,4-methylenedioxyphenyl)]propionic acid.2TFA], for which, on GPIIb/IIIa (setting [3]), the IC50 came to 0.7 nM.
In the case of `O=C(O)C[C@H](NC(=O)[C@@H]1CCCN(C(=O)CCC2CCNCC2)C1)c1cccnc1` [Compound 21, N-3-(4-Piperidinepropionyl)-R-(-)-nipecotyl-[(S)-3-amino-3-(3-pyridyl)]propionic acid.2TFA], the IC50 on GPIIb/IIIa (setting [3]) was found to be 0.5 nM; in test [1] (setting [5]), 60 nM. Moreover, the inhibition at 50 µM in test [1] (setting [4]) amounted to 100%.
With `COc1cccc(NC(=O)N[C@@H](CNC(=O)[C@@H]2CCCN(C(=O)CCC3CCNCC3)C2)C(=O)O)c1` [Compound 22, N-3-(4-Piperidinepropionyl)-R-(-)nipecotyl-[(S)-2-(3-methoxyanilino)carbonylamino-3-amino]propionic acid], the IC50 on GPIIb/IIIa (setting [3]) amounted to 0.7 nM.
Still for that read-out and setting: the same measure for `O=C(N[C@@H](CNC(=O)[C@@H]1CCCN(C(=O)CCC2CCNCC2)C1)C(=O)O)OCc1ccccc1` [Compound 23, N-3-(4-Piperidinepropionyl)-R-(-)nipecotyl-[(S)-2-benzyloxycarbonylamino-3-amino]propionic acid.HCl]: 0.3 nM.
In the case of `O=C(N[C@@H](CNC(=O)[C@@H]1CCCN(C(=O)CCC2CCNCC2)C1)C(=O)O)OCc1cccc(Cl)c1` [Compound 24, N-3-(4-Piperidinepropionyl)-R-(-)nipecotyl-[(S)-2-(3-chlorobenzyloxy)carbonylamino-3-amino]propionic acid.HCl], the inhibition at 50 µM in test [1] (setting [4]) is 100%.
Regarding `O=C(NC[C@H](NS(=O)(=O)Cc1ccccc1)C(=O)O)[C@@H]1CCCN(C(=O)CCC2CCNCC2)C1` [Compound 25, N-3-(4-Piperidinepropionyl)-R-(-)nipecotyl-[(S)-2-benzylsulfonylamino-3-amino]propionic acid.HCl], the IC50 at GPIIb/IIIa (setting [3]) is 0.3 nM; in test [1] (setting [5]), 7 nM.
As to `COc1cc(NC(=O)N[C@@H](CNC(=O)[C@@H]2CCCN(C(=O)CCC3CCNCC3)C2)C(=O)O)cc(OC)c1` [Compound 26, N-3-(4-Piperidinepropionyl)-R-(-)nipecotyl-[(S)-2-(3,5-dimethoxyanilino)carbonylamino-3-amino]propionic acid.HCl], the IC50 on GPIIb/IIIa (setting [3]) is 0.3 nM.
For `O=C(O)C[C@H](NC(=O)[C@@H]1CCCN(C(=O)N2CCC(C3CCNCC3)CC2)C1)c1cccnc1` [Compound 27, N-[(4,4'-Bipiperidin-1-yl-)carbonyl]-R-(-)-nipecotyl-[(S)-3-amino-3-(3-pyridyl)]propionic acid.3HCl], the IC50 at GPIIb/IIIa (setting [3]) came to 0.6 nM. For the same compound, the inhibition at 50 µM in test [1] (setting [4]) stood at 100%.
As to `O=C(Nc1ccc2ccccc2c1)N[C@@H](CNC(=O)[C@@H]1CCCN(C(=O)CCC2CCNCC2)C1)C(=O)O` [Compound 28, N-3-(4-Piperidinepropionyl)-R-(-)nipecotyl-[(S)-2-(2-naphthylamino)carbonylamino-3-amino]propionic acid.HCl], the IC50 at GPIIb/IIIa (setting [3]) worked out at 0.2 nM. The inhibition at 50 µM in test [1] (setting [4]) came out at 100%.
Turning to `O=C(NC[C@@H]1NC(=O)N(Cc2ccccc2)C1=O)[C@@H]1CCCN(C(=O)CCC2CCNCC2)C1` [Compound 29, N-3-(4-Piperidinepropionyl)-R-(-)nipecotyl-aminomethyl-5-(S)-(3-N-benzyl)imidazoline-2,4-dione.HCl], the IC50 on GPIIb/IIIa (setting [3]) was 68 nM. The inhibition at 50 µM in test [1] (setting [4]) was 100%.
Consider `O=C(NCCc1ccccc1)N[C@@H](CNC(=O)[C@@H]1CCCN(C(=O)CCC2CCNCC2)C1)C(=O)O` [Compound 30, N-3-(4-Piperidinepropionyl)-R-(-)nipecotyl-[(S)-2-(2-phenethylamino)carbonylamino-3-amino]propionic acid.HCO2 H], for which the IC50 at GPIIb/IIIa (setting [3]) was 0.8 nM. In addition, the inhibition at 50 µM in test [1] (setting [4]) was 100%.
For `Cc1ccc([C@H](CC(=O)O)NC(=O)[C@@H]2CCCN(C(=O)CCC3CCNCC3)C2)cn1` [Compound 31, N-3-(4-Piperidinepropionyl)-R-(-)nipecotyl-[(S)-3-amino-3-(6-methyl-3-pyridyl)]propionic acid.2HCl], in that order: 0.3 nM and 100%.
For the compound `O=C(O)C[C@H](NC(=O)[C@@H]1CCCN(C(=O)CCC2CCNCC2)C1)c1cncc(Br)c1` [Compound 32, N-3-(4-Piperidinepropionyl)-R-(-)nipecotyl-[(S)-3-amino-3-(5-bromo-3-pyridyl)]propionic acid.2HCl], the IC50 on GPIIb/IIIa (setting [3]) is 0.4 nM.
In the case of `N=CN1CCC(CCC(=O)N2CCC[C@@H](C(=O)N[C@@H](CC(=O)O)c3cccnc3)C2)CC1` [Compound 33, N-3-(4-Formamidinopiperidinepropionyl)-R-(-)nipecotyl-[(S)-3-amino-3-(3-pyridyl)]propionic acid.2HCl], the figures for the IC50 (at GPIIb/IIIa (setting [3]); in test [1] (setting [5])) were 0.7 nM and 300 nM, respectively. In addition, the inhibition at 50 µM in test [1] (setting [4]) amounted to 100%.

Source of the values: patent US6069254A, “Carboxamide derivatives of piperidine for the treatment of thrombosis disorders” (Ortho Pharmaceutical Corp., priority 1997, dated 2000).
